Measurements published in patent US20240254129A1, “HETEROCYCLIC COMPOUNDS AND USES THEREOF” (Kumquat Biosciences Inc., priority 2021, published 2024).
pIC50: −log10 of the molar value.

Experiments:
[1] = molecular target: GST-tagged K-Ras mutant / His-tagged hSOS1 (Homo sapiens, UniProt P01116); experiment: HTRF assay, K-Ras mutant / SOS1 interaction; type: binding; details: compound nos. 102-196, general methodology of example 5; read-out: IC50 against mutant Kras
Outline: (§1)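 HTRF read-out of GST-tagged K-Ras (mutant or wildtype) binding His-hSOS1, via anti-GST-Eu donor and anti-6His-XL665 acceptor; buffer ~5 mM HEPES pH 7.4, ~150 mM NaCl, ~1 mM DTT, 0.05% BSA, 0.0025% Igepal. Read after ≥~10 min; duplicates, 10 μM to 0.01 μM; IC50 from 665/620 nm ratio.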

[2] = molecular target: T1, wildtype Kras / hSOS1 (Homo sapiens, UniProt P01116); experiment: HTRF assay, wildtype Kras / SOS1 interaction; type: binding; details: compound nos. 102-196, general methodology of example 5; read-out: IC50 against wildtype Kras
T1 construct: made in house; host or cells: E. coli BL21 (DE3)
T1 sequence (P01116 1-188 isoform P01116-2): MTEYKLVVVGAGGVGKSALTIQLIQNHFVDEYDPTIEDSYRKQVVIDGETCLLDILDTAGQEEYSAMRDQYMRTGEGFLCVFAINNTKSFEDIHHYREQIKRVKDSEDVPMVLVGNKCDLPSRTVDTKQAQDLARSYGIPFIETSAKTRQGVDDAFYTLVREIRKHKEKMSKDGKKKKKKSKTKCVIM
Outline: as §1

Chain of GST-tagged K-Ras mutant / His-tagged hSOS1 (P01116 whole entry G12D, form open): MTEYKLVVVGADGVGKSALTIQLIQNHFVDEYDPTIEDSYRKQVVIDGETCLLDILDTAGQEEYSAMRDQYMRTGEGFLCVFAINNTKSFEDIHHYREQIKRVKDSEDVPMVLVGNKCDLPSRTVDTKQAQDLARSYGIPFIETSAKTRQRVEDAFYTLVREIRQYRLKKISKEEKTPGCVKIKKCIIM

SMILES | pIC50 [1] | pIC50 [2]
Nc1nc2c(-c3c(Cl)cc4c(N5CCOCC(O)C5)nc(OCC56CCCN5CCC6)nc4c3F)ccc(F)c2s1 (stereo not drawn) [Compound 159, 4-(7-(2-amino-7-fluoro-benzo[d]thiazol-4-yl)-6-chloro-8-fluoro-2-((tetra-hydro-1H-pyrrolizin-7a(5H)-yl)methoxy)quinazolin-4-yl)-1,4-oxazepan-6-ol] | > 6.30 | > 6.30
Nc1nc2c(-c3c(Cl)cc4c(N5CCOCC(O)C5)nc(OCC56CCCN5C[C@H](F)C6)nc4c3F)ccc(F)c2s1 (stereo partly drawn) [Compound 160, 4-(7-(2-amino-7-fluoro-benzo[d]thiazol-4-yl)-6-chloro-8-fluoro-2-(((2R)-2-fluorotetrahydro-1H-pyrrol-izin-7a(5H)-yl)methoxy)-quinazolin-4-yl)-1,4-oxazepan-6-ol] | < 6.30 | > 6.30
Nc1nc2c(-c3c(Cl)cc4c(N5CCNCC(O)C5)nc(OCC56CCCN5CCC6)nc4c3F)ccc(F)c2s1 (stereo not drawn) [Compound 161, 1-(7-(2-amino-7-fluoro-benzo[d]thiazol-4-yl)-6-chloro-8-fluoro-2-((tetra-hydro-1H-pyrrolizin-7a(5H)-yl)methoxy)quinazolin-4-yl)-1,4-diazepan-6-ol] | > 6.30 | > 6.30
Nc1nc2c(-c3c(Cl)cc4c(N5CCNCC(O)C5)nc(OCC56CCCN5C[C@H](F)C6)nc4c3F)ccc(F)c2s1 (stereo partly drawn) [Compound 162, 1-(7-(2-amino-7-fluoro-benzo[d]thiazol-4-yl)-6-chloro-8-fluoro-2-(((2R)-2-fluorotetrahydro-1H-pyrrol-izin-7a(5H)-yl)methoxy)-quinazolin-4-yl)-1,4-diazepan-6-ol] | > 6.30 | > 6.30
Nc1nc2c(-c3c(Cl)cc4c(N5CCNCC(F)C5)nc(OCC56CCCN5CCC6)nc4c3F)ccc(F)c2s1 (stereo not drawn) [Compound 163, 4-(6-chloro-8-fluoro-4-(6-fluoro-1,4-diazepan-1-yl)-2-((tetrahydro-1H-pyrrolizin-7a(5H)-yl)methoxy)quin-azolin-7-yl)-7-fluorobenzo-[d]thiazol-2-amine] | > 6.30 | > 6.30
Nc1nc2c(-c3c(Cl)cc4c(N5CCNCC(F)C5)nc(OC[C@@]56CCCN5C[C@H](F)C6)nc4c3F)ccc(F)c2s1 (stereo partly drawn) [Compound 164, 4-(6-chloro-8-fluoro-4-(6-fluoro-1,4-diazepan-1-yl)-2-(((2R,7aS)-2-fluorotetra-hydro-1H-pyrrolizin-7a(5H)-yl)methoxy)quinazolin-7-yl)-7-fluorobenzo[d]thiazol-2-amine] | > 6.30 | > 6.30
Nc1nc2c(-c3c(Cl)cc4c(N5CCOCC(N)C5)nc(OCC56CCCN5CCC6)nc4c3F)ccc(F)c2s1 (stereo not drawn) [Compound 165, 4-(7-(2-amino-7-fluoro-benzo[d]thiazol-4-yl)-6-chloro-8-fluoro-2-((tetra-hydro-1H-pyrrolizin-7a(5H)-yl)methoxy)quinazolin-4-yl)-1,4-oxazepan-6-amine] | > 6.30 | > 6.30
Nc1nc2c(-c3c(Cl)cc4c(N5CCCOCC5)nc(OC[C@@]56CCCN5C[C@H](F)C6)nc4c3F)cccc2o1 [Compound 167] | > 6.30 | > 6.30
Nc1nc2c(-c3c(Cl)cc4c(N5CCCCC(F)(F)C5)nc(OC[C@@]56CCCN5C[C@H](F)C6)nc4c3F)ccc(F)c2s1 [Compound 168, 4-(6-chloro-4-(3,3-difluoro-azepan-1-yl)-8-fluoro-2-(((2R,7aS)-2-fluorotetra-hydro-1H-pyrrolizin-7a(5H)-yl)methoxy)quinazolin-7-yl)-7-fluorobenzo[d]thiazol-2-amine] | > 6.30 | > 6.30
N#CC1CCCN(c2nc(OCC34CCCN3CCC4)nc3c(F)c(-c4ccc(F)c5sc(N)nc45)c(Cl)cc23)CC1 (stereo not drawn) [Compound 172, 1-(7-(2-amino-7-fluoro-benzo[d]thiazol-4-yl)-6-chloro-8-fluoro-2-((tetra-hydro-1H-pyrrolizin-7a(5H)-yl)methoxy)-quinazolin-4-yl)azepane-4-carbonitrile] | > 6.30 | > 6.30
Cc1ccc2cnn(C)c2c1-c1c(Cl)cc2c(N3CCNCC(F)(F)C3)nc(OC[C@@]34CCCN3C[C@H](F)C4)nc2c1F [Compound 175, 6-chloro-4-(6,6-difluoro-1,4-diazepan-1-yl)-7-(1,6-dimethyl-1H-indazol-7-yl)-8-fluoro-2-(((2R,7aS)-2-fluorotetrahydro-1H-pyrrolizin-7a(5H)-yl)meth-oxy)quinazoline] | > 6.30 | > 6.30
Cc1ccc2cnn(C)c2c1-c1c(Cl)cc2c(N3CCCCC(F)(F)C3)nc(OC[C@@]34CCCN3C[C@H](F)C4)nc2c1F [Compound 179, 6-chloro-4-(3,3-difluoro-azepan-1-yl)-7-(1,6-dimethyl-1H-indazol-7-yl)-8-fluoro-2-(((2R,7aS)-2-fluoro-tetrahydro-1H-pyrrolizin-7a(5H)-yl)-methoxy)quinazoline] | < 6.30 | < 6.30

Further lines, results first:

pIC50 [1] | pIC50 [2] | SMILES
> 6.30 | > 6.30 | Cc1cc2c(N3CCNCC(F)(F)C3)nc(OC[C@@H]3CCCN3C)nc2c(F)c1-c1cccc2sc(N)nc12 [Compound 157, 4-(4-(6,6-difluoro-1,4-diazepan-1-yl)-8-fluoro-6-methyl-2-(((S)-1-methyl-pyrrolidin-2-yl)methoxy)-quinazolin-7-yl)benzo[d]-thiazol-2-amine]
> 6.30 | > 6.30 | CN1CCC[C@H]1COc1nc(N2CCNCC(F)(F)C2)c2cc(Cl)c(-c3cccc4oc(N)nc34)c(F)c2n1 [Compound 158, 4-(6-chloro-4-(6,6-difluoro-1,4-diazepan-1-yl)-8-fluoro-2-(((S)-1-methylpyrrolidin-2-yl)methoxy)quinazolin-7-yl)benzo[d]oxazol-2-amine]
< 6.30 | < 6.30 | CN1CCC[C@H]1COc1nc(N2CCNCC(F)(F)C2)c2cc(Cl)c(-c3cccc4nc(N)oc34)c(F)c2n1 [Compound 166, 7-(6-chloro-4-(6,6-difluoro-1,4-diazepan-1-yl)-8-fluoro-2-(((S)-1-methylpyrrolidin-2-yl)methoxy)quinazolin-7-yl)benzo[d]oxazol-2-amine]
< 6.30 | < 6.30 | CN1CCC[C@H]1COc1nc(N2CCNCC(F)(F)C2)c2cc(Cl)c(-c3cccc4nc(O)oc34)c(F)c2n1 [Compound 169, 7-(6-chloro-4-(6,6-difluoro-1,4-diazepan-1-yl)-8-fluoro-2-(((S)-1-methylpyrrolidin-2-yl)methoxy)quinazolin-7-yl)benzo[d]oxazol-2-ol]
< 6.30 | < 6.30 | CN1CCC[C@H]1COc1nc(N2CCNCC(F)(F)C2)c2cc(Cl)c(-c3cccc4cccc(Cl)c34)c(F)c2n1 [Compound 170, 6-chloro-7-(8-chloronaph-thalen-1-yl)-4-(6,6-difluoro-1,4-diazepan-1-yl)-8-fluoro-2-(((S)-1-methylpyrrolidin-2-yl)methoxy)quinazoline]
< 6.30 | < 6.30 | Cc1ccc2[nH]nc(N)c2c1-c1c(Cl)cc2c(N3CCNCC(F)(F)C3)nc(OC[C@@H]3CCCN3C)nc2c1F [Compound 171, 4-(6-chloro-4-(6,6-difluoro-1,4-diazepan-1-yl)-8-fluoro-2-(((S)-1-methylpyrrolidin-2-yl)methoxy)quinazolin-7-yl)-5-methyl-1H-indazol-3-amine]
> 6.30 | > 6.30 | CN1CCC[C@H]1COc1nc(N2CCCC(O)CC2)c2cc(Cl)c(-c3cccc4sc(N)nc34)c(F)c2n1 (stereo partly drawn) [Compound 173, 1-(7-(2-aminobenzo[d]-thiazol-4-yl)-6-chloro-8-fluoro-2-(((S)-1-methyl-pyrrolidin-2-yl)methoxy)-quinazolin-4-yl)azepan-4-ol]
> 6.30 | > 6.30 | Nc1nc2c(-c3c(Cl)cc4c(N5CCNCC(F)(F)C5)nc(OC[C@@]56CCCN5C[C@H](F)C6)nc4c3F)cccc2o1 [Compound 174, 4-(6-chloro-4-(6,6-difluoro-1,4-diazepan-1-yl)-8-fluoro-2-(((2R,7aS)-2-fluorotetra-hydro-1H-pyrrolizin-7a(5H)-yl)methoxy)quinazolin-7-yl)benzo[d]oxazol-2-amine]
< 6.30 | < 6.30 | CN1CCC[C@H]1COc1nc(N2CCNCC(F)(F)C2)c2cc(Cl)c(-c3cccc4oc(O)nc34)c(F)c2n1 [Compound 176, 4-(6-chloro-4-(6,6-difluoro-1,4-diazepan-1-yl)-8-fluoro-2-(((S)-1-methylpyrrolidin-2-yl)methoxy)quinazolin-7-yl)benzo[d]oxazol-2-ol]
< 6.30 | < 6.30 | CN1CCC[C@H]1COc1nc(N2CCNCC(F)(F)C2)c2cc(Cl)c(-c3cccc4sc(O)nc34)c(F)c2n1 [Compound 177, 4-(6-chloro-4-(6,6-difluoro-1,4-diazepan-1-yl)-8-fluoro-2-(((S)-1-methylpyrrolidin-2-yl)methoxy)quinazolin-7-yl)benzo[d]thiazol-2-ol]
< 6.30 | < 6.30 | CN1CCC[C@H]1COc1nc(N2CCNCC(F)(F)C2)c2cc(Cl)c(-c3cccc4[nH]c(N)nc34)c(F)c2n1 [Compound 178, 4-(6-chloro-4-(6,6-difluoro-1,4-diazepan-1-yl)-8-fluoro-2-(((S)-1-methylpyrrolidin-2-yl)methoxy)quinazolin-7-yl)-1H-benzo[d]imidazol-2-amine]
> 6.30 | < 6.30 | CN1CCC[C@H]1COc1nc(N2C3CCNCC2CC3)c2cc(Cl)c(-c3cccc4sc(N)nc34)c(F)c2n1 (stereo partly drawn) [Compound 180, 4-(4-(3,9-diazabicyclo-[4.2.1]nonan-9-yl)-6-chloro-8-fluoro-2-(((S)-1-methyl-pyrrolidin-2-yl)methoxy)-quinazolin-7-yl)benzo[d]-thiazol-2-amine]
